± gives the expanded uncertainty stated by the source.
Tests used:
[1] = Crystal; DTA
[2] = Molar enthalpy of transition or fusion; settings: Crystal; DSC

SMILES	Normal melting temperature [1]	Molar enthalpy of transition or fusion [2]
C1CCCCC1 [cyclohexane]	7 ± 1.1 °C	
CCCCCCCCCCCC [dodecane]	-9.4 ± 1.1 °C	
CCCCCCCCCCCCCCCCCCCC [eicosane]	35.0 ± 1.1 °C	
[Ga] [gallium]	30.2 ± 1.1 °C	5.81 ± 0.5 kJ/mol
CCCCCCCCCCCCCCCC [hexadecane]	18 ± 1.1 °C	

Second part, the molecule after the results:

Normal melting temperature [1]	Molar enthalpy of transition or fusion [2]	SMILES
5.8 ± 1.1 °C		CCCCCCCCCCCCCC [tetradecane]
0.4 ± 1.1 °C		O [water]
